Measurements from ChEMBL document CHEMBL4330131, “The identification of novel small-molecule inhibitors targeting WDR5-MLL1 interaction through fluorescence polarization based high-throughput screening” (Bioorg Med Chem Lett, 2019).

Experiments:
[1] = target: T1, WD repeat-containing protein 5 (Homo sapiens, UniProt P61964); test: Displacement of fluorescence-labelled Ac-ARA peptide from WDR5 (unknown origin) by fluorescence polarization assay
[2] = target: T1, WD repeat-containing protein 5; test: Displacement of 5-FAM labelled tracer from WDR5 (unknown origin) by fluorescence polarization assay
[3] = target: T1, WD repeat-containing protein 5; test: Displacement of Ac-ARTEVHLRKS-(Ahx)-(Ahx)-K(5-FAM)-NH2 from recombinant full-length human N-terminal His6-tagged WDR5 (1 to 334 residues) expressed in Escherichia coli BL21 (DE3) after 2 hrs by fluorescence polarization assay
[4] = target: T2, Histone-lysine N-methyltransferase EHMT2 (Homo sapiens, UniProt Q96KQ7); test: Inhibition of G9a (unknown origin) using SAM as substrate preincubated for 15 mins followed by substrate addition and measured after 1 hr by Alphalisa assay
T2 sequence (Q96KQ7 whole entry): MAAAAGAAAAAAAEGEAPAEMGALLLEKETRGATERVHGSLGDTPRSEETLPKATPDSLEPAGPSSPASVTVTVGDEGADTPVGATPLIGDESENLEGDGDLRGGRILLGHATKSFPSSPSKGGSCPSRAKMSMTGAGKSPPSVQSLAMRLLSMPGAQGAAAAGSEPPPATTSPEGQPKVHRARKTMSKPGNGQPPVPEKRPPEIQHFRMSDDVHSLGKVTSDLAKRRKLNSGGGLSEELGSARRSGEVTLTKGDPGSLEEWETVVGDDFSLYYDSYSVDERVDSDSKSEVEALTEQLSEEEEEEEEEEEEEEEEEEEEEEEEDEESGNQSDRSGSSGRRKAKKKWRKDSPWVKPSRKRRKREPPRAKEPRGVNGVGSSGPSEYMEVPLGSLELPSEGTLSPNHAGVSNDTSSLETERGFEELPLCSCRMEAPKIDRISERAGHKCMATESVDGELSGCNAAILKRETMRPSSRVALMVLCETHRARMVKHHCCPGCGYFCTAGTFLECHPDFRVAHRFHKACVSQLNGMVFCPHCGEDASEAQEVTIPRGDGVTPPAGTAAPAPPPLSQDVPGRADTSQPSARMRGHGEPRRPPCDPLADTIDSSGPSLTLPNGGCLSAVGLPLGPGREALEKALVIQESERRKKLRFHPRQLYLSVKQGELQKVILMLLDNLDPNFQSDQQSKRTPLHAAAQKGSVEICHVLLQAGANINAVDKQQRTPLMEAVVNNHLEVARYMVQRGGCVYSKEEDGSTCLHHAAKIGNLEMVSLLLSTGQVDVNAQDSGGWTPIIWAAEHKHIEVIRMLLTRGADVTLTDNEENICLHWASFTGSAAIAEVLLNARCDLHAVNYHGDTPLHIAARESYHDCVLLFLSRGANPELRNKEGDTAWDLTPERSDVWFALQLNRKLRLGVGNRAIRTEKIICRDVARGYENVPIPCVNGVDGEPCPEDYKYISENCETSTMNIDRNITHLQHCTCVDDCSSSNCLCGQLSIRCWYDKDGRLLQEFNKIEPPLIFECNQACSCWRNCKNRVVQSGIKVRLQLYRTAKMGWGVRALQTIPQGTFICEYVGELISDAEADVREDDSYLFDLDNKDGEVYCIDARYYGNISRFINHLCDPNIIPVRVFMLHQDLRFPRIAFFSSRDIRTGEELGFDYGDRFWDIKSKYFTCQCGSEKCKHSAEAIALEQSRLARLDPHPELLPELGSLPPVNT

[5] = target: T1, WD repeat-containing protein 5; test: Binding affinity to recombinant full-length human N-terminal His6-tagged WDR5 (1 to 334 residues) expressed in Escherichia coli BL21 (DE3) by surface plasmon resonance analysis
[6] = target: Histone-lysine N-methyltransferase SETD1B (Homo sapiens, UniProt Q9UPS6); test: Inhibition of SETD1B (unknown origin) using SAM as substrate preincubated for 15 mins followed by substrate addition and measured after 1 hr by Alphalisa assay
MV4-11 = test: Antiproliferative activity against human MV4-11 cells harboring MLL-AF4 fusion protein assessed as cell growth inhibition after 5 days by Celltiter-Glo luminescent assay; assay type: functional, cell-based; conditions: MV4-11, 120 h
[7] = target: Histone-lysine N-methyltransferase 2D (Homo sapiens, UniProt O14686); test: Inhibition of MLL2 (unknown origin) using SAM as substrate preincubated for 15 mins followed by substrate addition and measured after 1 hr by Alphalisa assay
K562 = test: Antiproliferative activity against human K562 cells assessed as cell growth inhibition after 5 days by Celltiter-Glo luminescent assay; assay type: functional, cell-based; conditions: K562, 120 h
[8] = target: Protein arginine N-methyltransferase 1 (Homo sapiens, UniProt Q99873); test: Inhibition of PRMT1 (unknown origin) using SAM as substrate preincubated for 15 mins followed by substrate addition and measured after 1 hr by Alphalisa assay
Sequence of Protein arginine N-methyltransferase 1 (Q99873 whole entry): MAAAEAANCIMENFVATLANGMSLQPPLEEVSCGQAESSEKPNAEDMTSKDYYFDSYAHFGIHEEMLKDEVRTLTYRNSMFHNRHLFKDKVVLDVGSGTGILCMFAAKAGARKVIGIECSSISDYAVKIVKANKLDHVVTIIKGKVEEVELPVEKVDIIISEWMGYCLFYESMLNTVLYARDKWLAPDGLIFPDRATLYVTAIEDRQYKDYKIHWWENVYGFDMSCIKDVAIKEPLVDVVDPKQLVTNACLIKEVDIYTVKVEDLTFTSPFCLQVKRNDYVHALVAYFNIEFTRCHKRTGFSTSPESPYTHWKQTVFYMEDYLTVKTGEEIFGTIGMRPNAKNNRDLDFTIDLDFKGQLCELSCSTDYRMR

Sequence of Histone-lysine N-methyltransferase SETD1B (Q9UPS6 whole entry, the tested form may be a part): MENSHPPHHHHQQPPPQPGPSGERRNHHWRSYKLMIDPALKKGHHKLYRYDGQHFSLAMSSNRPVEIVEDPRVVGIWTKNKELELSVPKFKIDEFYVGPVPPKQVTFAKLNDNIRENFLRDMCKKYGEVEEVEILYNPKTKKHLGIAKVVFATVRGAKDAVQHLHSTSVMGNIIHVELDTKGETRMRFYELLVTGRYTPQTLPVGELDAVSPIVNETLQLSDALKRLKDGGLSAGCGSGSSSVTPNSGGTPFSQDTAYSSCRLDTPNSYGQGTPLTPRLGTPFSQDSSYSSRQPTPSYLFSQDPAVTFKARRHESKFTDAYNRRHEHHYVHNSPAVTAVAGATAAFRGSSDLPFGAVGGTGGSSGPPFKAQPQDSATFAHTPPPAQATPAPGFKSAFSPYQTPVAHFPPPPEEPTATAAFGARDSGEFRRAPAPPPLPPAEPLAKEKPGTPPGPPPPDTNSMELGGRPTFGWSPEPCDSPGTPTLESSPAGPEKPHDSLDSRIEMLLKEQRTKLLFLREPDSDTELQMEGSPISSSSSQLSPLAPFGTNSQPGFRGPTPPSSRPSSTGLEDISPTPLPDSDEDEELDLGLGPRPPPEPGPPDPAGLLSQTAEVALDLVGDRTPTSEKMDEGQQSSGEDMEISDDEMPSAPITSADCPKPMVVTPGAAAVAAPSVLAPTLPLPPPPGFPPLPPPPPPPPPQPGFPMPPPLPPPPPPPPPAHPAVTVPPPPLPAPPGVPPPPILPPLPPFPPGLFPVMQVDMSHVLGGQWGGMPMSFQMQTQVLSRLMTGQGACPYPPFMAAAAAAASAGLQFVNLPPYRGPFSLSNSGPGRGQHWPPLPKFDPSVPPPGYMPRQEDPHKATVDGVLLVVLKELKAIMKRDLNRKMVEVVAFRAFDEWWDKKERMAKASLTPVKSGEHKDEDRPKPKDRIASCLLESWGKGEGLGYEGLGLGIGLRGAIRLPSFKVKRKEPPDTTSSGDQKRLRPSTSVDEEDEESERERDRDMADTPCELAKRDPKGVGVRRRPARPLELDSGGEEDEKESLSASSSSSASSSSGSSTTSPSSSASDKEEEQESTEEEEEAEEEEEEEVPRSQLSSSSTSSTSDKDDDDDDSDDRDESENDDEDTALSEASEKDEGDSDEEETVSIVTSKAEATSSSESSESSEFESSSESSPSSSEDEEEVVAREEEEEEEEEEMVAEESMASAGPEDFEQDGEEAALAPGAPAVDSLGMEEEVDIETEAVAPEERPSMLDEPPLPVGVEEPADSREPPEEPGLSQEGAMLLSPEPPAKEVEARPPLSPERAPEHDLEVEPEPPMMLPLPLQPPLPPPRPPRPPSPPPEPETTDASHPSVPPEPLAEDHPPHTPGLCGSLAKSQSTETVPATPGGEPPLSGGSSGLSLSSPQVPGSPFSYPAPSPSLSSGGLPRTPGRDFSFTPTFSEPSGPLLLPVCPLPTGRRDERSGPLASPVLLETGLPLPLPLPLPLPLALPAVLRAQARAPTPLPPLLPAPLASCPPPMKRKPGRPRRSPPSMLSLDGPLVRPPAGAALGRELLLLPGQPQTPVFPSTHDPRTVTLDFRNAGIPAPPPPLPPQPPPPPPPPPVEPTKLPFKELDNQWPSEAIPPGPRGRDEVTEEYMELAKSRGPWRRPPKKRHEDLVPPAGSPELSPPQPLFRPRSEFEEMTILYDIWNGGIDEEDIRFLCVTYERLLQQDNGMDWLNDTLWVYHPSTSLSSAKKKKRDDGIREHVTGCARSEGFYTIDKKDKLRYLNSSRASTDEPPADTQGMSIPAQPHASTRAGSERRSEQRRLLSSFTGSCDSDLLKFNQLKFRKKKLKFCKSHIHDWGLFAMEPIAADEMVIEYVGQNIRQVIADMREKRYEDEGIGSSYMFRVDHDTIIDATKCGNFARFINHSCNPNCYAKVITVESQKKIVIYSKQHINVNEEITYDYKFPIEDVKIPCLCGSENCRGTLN

With `CCC(CC)(NC(=O)C(C)C)C(=O)N[C@@H](CCCNC(=N)N)C(=O)NC1(C(=O)NC(c2ccc(Cl)cc2)c2ccc(Cl)cc2)CCCC1` the IC50 [1] was 0.0045 µM and the Ki [2] was < 0.001 µM.
`COc1ccc(S(=O)(=O)Nc2ccc(C(=O)O)cc2)cc1C(C)(C)C` gave an IC50 [3] of 48 µM.
Work on `CCCCOc1ccc(S(=O)(=O)Nc2cccc(C(=O)O)c2)cc1C` yielded an IC50 [3] of 30 µM.
In the case of `Cc1c(Cl)ccc(S(=O)(=O)Nc2cccc(C(=O)O)c2)c1Cl`, the IC50 [3] is reported as 13 to 13.1 µM.
For `CCCCOc1ccc(S(=O)(=O)Nc2ccc(C(=O)O)cc2)cc1C`, the IC50 [4] was > 100 µM, the Kd [5] was 15.8 µM and the IC50 [6] was > 100 µM. The IC50 (MV4-11) was 31.2 µM, the IC50 [7] was > 100 µM and the IC50 (K562) was 72.1 µM. The IC50 [3] was 13 µM and the IC50 [8] was > 100 µM.
In the case of `O=C(O)c1cc(NS(=O)(=O)c2ccc(Cl)cc2)cc(C(=O)O)c1`, the IC50 [3] is reported as 22 µM.
With `CCCCOc1ccc(S(=O)(=O)Nc2ccccc2C(=O)O)cc1C` the IC50 [3] was 22 µM.
